Results published in US8883745B2, “C—glycolipids with enhanced Th-1 profile” (New York University, priority 2006, dated 2014).

What was measured:
[1] = tested on: IL-12; test: IL-12 levels in sera upon i.v. glycolipid administration to BALB/c mice (ELISA); type: in vivo; design: IL-12 levels, test 1 / IL-12 levels, test 2 / IL-12 levels, average / IL-12 levels, Total: unit not given here; settings: for IL-12/IL-4 (BALB/c): ratio calculated from Tables 1-6; for IL-12 levels, average / IL-12 levels, test 1 / IL-12 levels, test 2 / IL-12 levels, Total: serum; for IL-12 levels, Total: total over hours 0-72
Experimental: (§1) Five- to six-week-old female C57BL/6 mice and BALB/c mice were purchased from Taconic. Each glycolipid was stored at 1 mg/ml in 100% DMSO. Mice were injected intravenously with 1 μg of each glyocolipid diluted in 200 μL sterile phosphate buffered saline (PBS). At indicated time points, sera were collected from each animal, and concentrations of IFN-γ, IL-4, and IL-12 in the sera were evaluated by enzyme-linked immunosorbent assay (ELISA). Serum concentrations of IFN-γ, IL-4, and IL-12 were evaluated using an ELISA kit (eBioscience, San Diego, Calif.). Briefly, 96 well flat-bottom ELISA plates (NUNC) were coated with capture antibody according to the manufacture's recommendation and incubated overnight at 4° C. The plates were washed with PBS+0.05% Tween 20 (PBS-T), then incubated with manufacturer provided blocking solution for 1 hr at room temperature to block non-specific binding sites. After washing with PBS-T, sera diluted 1:10 was added to the wells and incubated for 2 hrs at room temperature. Plates were then incubated at room temperature for 1 hr with biotintylated detection antibody, washed, incubated with avidin conjugated to horse radish peroxidase (HRP) for 30 min at room temperature, washed, and finally incubated with tetramethylbenzidine substrate solution in the dark for 10 minutes at room temperature. The antibodies, avidin-HRP, and substrate solution were all diluted according to the manufacture's recommendation. Reactions were stopped with 2.0N sulfuric acid and the cytokine concentration in each well was determined by comparing the absorbance at 450 nm in each well to known standards. The levels of Th1- and Th2-type cytokines were determined in two different genetic backgrounds, i.e., in C57BL/6 mice and BALB/c mice. The following compounds were administered: A=compound (A-1 trans-conformer), B=compound (A-2), C=compound (A-3), D=compound (A-4), E=compound (A-5), Z=control (PBS alone), CRONY=α-C-GalCer, KRN=α-GalCer, GCK109 (A-1 trans-conformer), GCK151 (A-1 cis-conformer), GCK152 (A-7). The levels of cytokines were measured at 0, 2, 6, 12, 24, 48, and 72 hours after the compound administration. The levels of Th1-type cytokines IFN-γ and IL-12 are summarized in FIGS. 2A-C and 3A-C, respectively. Table 7 provides IFN-γ/IL-4 and IL-12/IL-4 ratios for various compounds, which can be used as indicators of their ability to selectively stimulate Th1-type immune responses.

[2] = tested on: IL-4; test: IL-4 levels in sera upon i.v. glycolipid administration to C57BL/6 mice (ELISA); type: in vivo; design: unit not given here; settings: for IL-4 level, Total: total over hours 0-72
Experimental: as §1

[3] = tested on: melanoma metastases; settings: in vivo administration; cited from earlier work
[4] = tested on: rodent malaria parasites, P. yoeli and P. berghei; settings: cited from earlier work
[5] = tested on: solid tumors; settings: Phase I study; cited from earlier work
[6] = Solubility in an aqueous solution; type: physicochemical
[7] = rodents and monkeys, independently of dosage; cited from earlier work

CCCCCCCCCCCCCC[C@@H](O)[C@@H](O)[C@H](CC[C@H]1O[C@H](CO)[C@H](O)[C@H](O)[C@H]1O)NC(=O)CCCCCCCCCCCCCCCCCCCOCCCCC [A-5]
IL-12/IL-4 (BALB/c) [1]: 13
IL-12 levels, average ([1]; hour 0): 5
IL-12 levels, test 1 ([1]; hour 0): 5
IL-12 levels, test 2 ([1]; hour 0): 5
IL-12 levels, average ([1]; hour 2): 153.5
IL-12 levels, test 1 ([1]; hour 2): 74
IL-12 levels, test 2 ([1]; hour 2): 233
IL-12 levels, average ([1]; hour 6): 1668
IL-12 levels, test 1 ([1]; hour 6): 1587
IL-12 levels, test 2 ([1]; hour 6): 1749
IL-12 levels, average ([1]; hour 12): 2806.5
IL-12 levels, test 1 ([1]; hour 12): 2246
IL-12 levels, test 2 ([1]; hour 12): 3367
IL-12 levels, average ([1]; hour 24): 141
IL-12 levels, test 1 ([1]; hour 24): 110
IL-12 levels, test 2 ([1]; hour 24): 172
IL-12 levels, average ([1]; hour 48): 97
IL-12 levels, test 1 ([1]; hour 48): 0
IL-12 levels, test 2 ([1]; hour 48): 194
IL-12 levels, average ([1]; hour 72): 76.5
IL-12 levels, test 1 ([1]; hour 72): 153
IL-12 levels, test 2 ([1]; hour 72): 0
IL-12 levels, Total [1]: 4949
IL-4 level, average ([2]; hour 0): 46
IL-4 level, test 1 ([2]; hour 0): 46
IL-4 level, test 2 ([2]; hour 0): 46
IL-4 level, average ([2]; hour 2): 308
IL-4 level, test 1 ([2]; hour 2): 283
IL-4 level, test 2 ([2]; hour 2): 333
IL-4 level, average ([2]; hour 6): 89
IL-4 level, test 1 ([2]; hour 6): 75
IL-4 level, test 2 ([2]; hour 6): 103
IL-4 level, average ([2]; hour 12): 45
IL-4 level, test 1 ([2]; hour 12): 42
IL-4 level, test 2 ([2]; hour 12): 48
IL-4 level, average ([2]; hour 24): 50
IL-4 level, test 1 ([2]; hour 24): 46
IL-4 level, test 2 ([2]; hour 24): 54
IL-4 level, average ([2]; hour 48): 46
IL-4 level, test 1 ([2]; hour 48): 44
IL-4 level, test 2 ([2]; hour 48): 48
IL-4 level, average ([2]; hour 72): 64.5
IL-4 level, test 1 ([2]; hour 72): 69
IL-4 level, test 2 ([2]; hour 72): 60
IL-4 level, Total [2]: 649

CCCCCCCCCCCCCCCCCCCCCCCCCC(=O)N[C@@H](CC[C@H]1O[C@H](CO)[C@H](O)[C@H](O)[C@H]1O)[C@H](O)[C@H](O)CCCCCCCCCCCCCC [CRONY, reference compound]
improved activity against melanoma metastases (as compared to α-GalCer) [3]: 100 fold
IL-12/IL-4 (BALB/c) [1]: 7
IL-12 levels, average ([1]; hour 0): 5
IL-12 levels, test 1 ([1]; hour 0): 5
IL-12 levels, test 2 ([1]; hour 0): 5
IL-12 levels, average ([1]; hour 2): 66
IL-12 levels, test 1 ([1]; hour 2): 7
IL-12 levels, test 2 ([1]; hour 2): 125
IL-12 levels, average ([1]; hour 6): 1525
IL-12 levels, test 1 ([1]; hour 6): 1556
IL-12 levels, test 2 ([1]; hour 6): 1494
IL-12 levels, average ([1]; hour 12): 1888.5
IL-12 levels, test 1 ([1]; hour 12): 1717
IL-12 levels, test 2 ([1]; hour 12): 2060
IL-12 levels, average ([1]; hour 24): 210
IL-12 levels, test 1 ([1]; hour 24): 338
IL-12 levels, test 2 ([1]; hour 24): 82
IL-12 levels, average ([1]; hour 48): 238
IL-12 levels, test 1 ([1]; hour 48): 328
IL-12 levels, test 2 ([1]; hour 48): 148
IL-12 levels, average ([1]; hour 72): 91.5
IL-12 levels, test 1 ([1]; hour 72): 9
IL-12 levels, test 2 ([1]; hour 72): 174
IL-12 levels, Total [1]: 4025
IL-4 level, average ([2]; hour 0): 46
IL-4 level, test 1 ([2]; hour 0): 46
IL-4 level, test 2 ([2]; hour 0): 46
IL-4 level, average ([2]; hour 2): 464
IL-4 level, test 1 ([2]; hour 2): 286
IL-4 level, test 2 ([2]; hour 2): 642
IL-4 level, average ([2]; hour 6): 73
IL-4 level, test 1 ([2]; hour 6): 48
IL-4 level, test 2 ([2]; hour 6): 98
IL-4 level, average ([2]; hour 12): 34
IL-4 level, test 1 ([2]; hour 12): 12
IL-4 level, test 2 ([2]; hour 12): 56
IL-4 level, average ([2]; hour 24): 23
IL-4 level, test 1 ([2]; hour 24): 16
IL-4 level, test 2 ([2]; hour 24): 30
IL-4 level, average ([2]; hour 48): 11.5
IL-4 level, test 1 ([2]; hour 48): 17
IL-4 level, test 2 ([2]; hour 48): 6
IL-4 level, average ([2]; hour 72): 21.5
IL-4 level, test 1 ([2]; hour 72): 15
IL-4 level, test 2 ([2]; hour 72): 28
IL-4 level, Total [2]: 674
improved activity against malaria (as compared to α-GalCer) ([4]; in vivo administration): 1000 fold

CCCCCCCCCCCCCCCCCCCCCCCCCC(=O)N[C@@H](CO[C@H]1O[C@H](CO)[C@H](O)[C@H](O)[C@H]1O)[C@H](O)[C@H](O)CCCCCCCCCCCCCC [KRN, (2S,3S,4R)-1-O-(α-D-galactopyranosyl)-2-(N-hexacosanoylamino)-1,3,4-,-octadecanetriol, reference compound]
effect in patients with solid tumors [5]: little effect
IL-12/IL-4 (BALB/c) [1]: 2
IL-12 levels, average ([1]; hour 0): 5
IL-12 levels, test 1 ([1]; hour 0): 5
IL-12 levels, test 2 ([1]; hour 0): 5
IL-12 levels, average ([1]; hour 2): 124
IL-12 levels, test 1 ([1]; hour 2): 69
IL-12 levels, test 2 ([1]; hour 2): 179
IL-12 levels, average ([1]; hour 6): 3067.5
IL-12 levels, test 1 ([1]; hour 6): 2567
IL-12 levels, test 2 ([1]; hour 6): 3568
IL-12 levels, average ([1]; hour 12): 437.5
IL-12 levels, test 1 ([1]; hour 12): 282
IL-12 levels, test 2 ([1]; hour 12): 593
IL-12 levels, average ([1]; hour 24): 265.5
IL-12 levels, test 1 ([1]; hour 24): 119
IL-12 levels, test 2 ([1]; hour 24): 412
IL-12 levels, average ([1]; hour 48): 68
IL-12 levels, test 1 ([1]; hour 48): 57
IL-12 levels, test 2 ([1]; hour 48): 79
IL-12 levels, average ([1]; hour 72): 61
IL-12 levels, test 1 ([1]; hour 72): 57
IL-12 levels, test 2 ([1]; hour 72): 65
IL-12 levels, Total [1]: 4030
solubility in an aqueous solution relative to the tested compounds of the invention [6]: more soluble
IL-4 level, average ([2]; hour 0): 46
IL-4 level, test 1 ([2]; hour 0): 46
IL-4 level, test 2 ([2]; hour 0): 46
IL-4 level, average ([2]; hour 2): 3915
IL-4 level, test 1 ([2]; hour 2): 3584
IL-4 level, test 2 ([2]; hour 2): 4246
IL-4 level, average ([2]; hour 6): 183
IL-4 level, test 1 ([2]; hour 6): 122
IL-4 level, test 2 ([2]; hour 6): 244
IL-4 level, average ([2]; hour 12): 102.5
IL-4 level, test 1 ([2]; hour 12): 103
IL-4 level, test 2 ([2]; hour 12): 102
IL-4 level, average ([2]; hour 24): 18
IL-4 level, test 1 ([2]; hour 24): 20
IL-4 level, test 2 ([2]; hour 24): 16
IL-4 level, average ([2]; hour 48): 1
IL-4 level, test 1 ([2]; hour 48): 2
IL-4 level, test 2 ([2]; hour 48): 0
IL-4 level, average ([2]; hour 72): 0.5
IL-4 level, test 1 ([2]; hour 72): 0
IL-4 level, test 2 ([2]; hour 72): 1
IL-4 level, Total [2]: 4267
anti-malaria activity (inhibition of intra-hepatocytic stages) ([4]; administration to mice): strong anti-malaria activity
toxicity [7]: does not induce toxicity
